Experimental findings from US8895761B2, “4-phenylpyrane-3,5-diones, 4-phenylthiopyrane-3,5-diones and 2-phenylcyclohexane-1,3,5-triones as herbicides” (Syngenta Limited, priority 2007, dated 2014) are described below.

Common to all, as to type: in vivo
The test system of one assay is Setaria faberi (SETFA). The assay can be described thus: Post-emergence herbicidal glasshouse test, Setaria faberi. To be noted: Setaria faberi, 312 h, rate 250 g/ha, evaluated after 13 days, scale 100 = total damage to plant, 0 = no damage. As to the method: Seeds of a variety of test species were sown in standard soil in pots. After cultivation for one day (pre-emergence) or after 8 days cultivation (post-emergence) under controlled conditions in a glasshouse (at 24/16° C., day/night; 14 hours light; 65% humidity), the plants were sprayed with an aqueous spray solution derived from the formulation of the technical active ingredient in acetone/water (50:50) solution containing 0.5% Tween 20 (polyoxyethelyene sorbitan monolaurate, CAS RN 9005-64-5). The test plants were then grown in a glasshouse under controlled conditions in a glasshouse (at 24/16° C., day/night; 14 hours light; 65% humidity) and watered twice daily. After 13 days for pre and post-emergence, the test was evaluated ([…] to plant; 0=no damage to plant).
Setaria faberi (SETFA), Lolium perenne (LOLPE), Alopecurus myosuroides (ALOMY), Echinochloa crus-galli (ECHCG) and Avena fatua (AVEFA).

In assay [1] the test system is Alopecurus myosuroides (ALOMY). Nature of the assay: Post-emergence herbicidal glasshouse test, Alopecurus myosuroides. To be noted: Alopecurus myosuroides, 312 h, rate 250 g/ha, evaluated after 13 days, scale 100 = total damage to plant, 0 = no damage. The method, boiled down: (§1)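 Pots, standard soil; spray at day 1 (pre-em) or day 8 (post-em). Formulation: acetone/water 50:50 + 0.5% Tween 20, diluted into aqueous spray. Glasshouse 24/16° C., 14 h light, 65% RH, watering twice daily. Scored at 13 days: 0 = no damage up to total plant damage.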

The subject of assay [2] is Echinochloa crus-galli (ECHCG). The assay can be described thus: Post-emergence herbicidal glasshouse test, Echinochloa crus-galli. To be noted: Echinochloa crus-galli, 312 h, rate 250 g/ha, evaluated after 13 days, scale 100 = total damage to plant, 0 = no damage. The method, boiled down: as §1
Assay [3] concerns Avena fatua (AVEFA). Nature of the assay: Post-emergence herbicidal glasshouse test, Avena fatua. To be noted: Avena fatua, 312 h, rate 250 g/ha, evaluated after 13 days, scale 100 = total damage to plant, 0 = no damage. The method, boiled down: as §1
Assay [4] concerns Lolium perenne (LOLPE). Nature of the assay: Pre-emergence herbicidal glasshouse test, Lolium perenne. To be noted: 312 h, rate 250 g/ha, evaluated after 13 days, scale 100 = total damage to plant, 0 = no damage. Put shortly: as §1
The test system of assay [5] is Alopecurus myosuroides (ALOMY). The assay can be described thus: Pre-emergence herbicidal glasshouse test, Alopecurus myosuroides. To be noted: Alopecurus myosuroides, 312 h, rate 250 g/ha, evaluated after 13 days, scale 100 = total damage to plant, 0 = no damage. Put shortly: as §1
For assay [6], the system named is Echinochloa crus-galli (ECHCG). Nature of the assay: Pre-emergence herbicidal glasshouse test, Echinochloa crus-galli. To be noted: Echinochloa crus-galli, 312 h, rate 250 g/ha, evaluated after 13 days, scale 100 = total damage to plant, 0 = no damage. The method, boiled down: as §1
Assay [7] concerns Avena fatua (AVEFA). Nature of the assay: Pre-emergence herbicidal glasshouse test, Avena fatua. To be noted: Avena fatua, 312 h, rate 250 g/ha, evaluated after 13 days, scale 100 = total damage to plant, 0 = no damage. Put shortly: as §1
Assay [8] has as its system Lolium perenne (LOLPE). Nature of the assay: Post-emergence herbicidal glasshouse test, Lolium perenne. To be noted: 312 h, rate 250 g/ha, evaluated after 13 days, scale 100 = total damage to plant, 0 = no damage. The method, boiled down: as §1

As a reminder, the pest or weed control is how far the test organism was held down. Lower therefore signals weak suppression. On to `CCc1cc(-c2ccc(Cl)cc2Cl)cc(CC)c1C1=C(O)[C@@]2(C)CC[C@H](O2)C1=O` (relative stereo) [Compound A-34], for which the pest or weed control at 250 g/ha with Setaria faberi (SETFA) stood at 90%; in assay [1] it was 30%; in assay [2], 70%; in the assay on Avena fatua (AVEFA) [3] it was 20%.

Consider `Cc1cc(-c2cc(Cl)cc(Cl)c2)cc(C)c1C1=C(O)[C@@]2(C)CC[C@H](O2)C1=O` [Compound A-54], for which the pest or weed control at 250 g/ha was found to be 0% in the assay with Lolium perenne (LOLPE) [4]; 0% in assay [5]; 0% in assay [6]; 0% in the assay with Avena fatua (AVEFA) [7]; 40% in the assay on Lolium perenne (LOLPE) [8]; 40% in [1]. Also, the pest or weed control at 250 g/ha turned out to be 80% in [2] and 30% with Avena fatua (AVEFA) [3].

As for `CCc1cc(-c2cc(F)c(F)c(F)c2)ccc1C1=C(O)C2(CCCC2)OC(C)(C)C1=O` [Compound A-126], the pest or weed control at 250 g/ha with Lolium perenne (LOLPE) [4] was 10%; in [5], 10%; in [6], 10%; in the assay with Avena fatua (AVEFA) [7] it was 0%; with Lolium perenne (LOLPE) [8] it was 40%; in assay [1], 40%. Also, the pest or weed control at 250 g/ha in assay [2] was 70%; with Avena fatua (AVEFA) [3], 20%.

With `CCc1cc(-c2ccc(C(F)(F)F)cc2)ccc1C1=C(O)C(C)(C)OC(C)(C)C1=O` [Compound A-70], the pest or weed control at 250 g/ha was found to be 0% in the assay with Lolium perenne (LOLPE) [4]; 0% in assay [5]; 0% in [6]; 0% in the assay on Avena fatua (AVEFA) [7]; 50% in the assay on Lolium perenne (LOLPE) [8]; 40% in assay [1]. For the same compound, the results for the pest or weed control at 250 g/ha (in assay [2]; in the assay with Avena fatua (AVEFA) [3]) were 80% and 0%, respectively.

For `CCc1cc(-c2ccc(Cl)c(Cl)c2)ccc1C1=C(OC(C)=O)C(C)(C)OC(C)(C)C1=O` [Compound D-2], the pest or weed control at 250 g/ha was found to be 100% in the assay on Lolium perenne (LOLPE) [4]; 30% in [5]; 90% in assay [6]; 20% with Avena fatua (AVEFA) [7]; 80% in the assay with Lolium perenne (LOLPE) [8]; 70% in assay [1]. Also, the results for the pest or weed control at 250 g/ha (in [2]; in the assay with Avena fatua (AVEFA) [3]) were 90% and 40%, respectively.

On to `CC1(C)OC(C)(C)C(O)=C(c2ccc(-c3ccc(F)cc3)cc2OC(F)(F)F)C1=O` [Compound A-135], for which the pest or weed control at 250 g/ha in the assay with Lolium perenne (LOLPE) [4] amounted to 10%; in assay [5] it was 30%; in assay [6], 30%; in the assay with Avena fatua (AVEFA) [7], 10%; in the assay with Lolium perenne (LOLPE) [8], 60%; in assay [1] it was 60%. The figures for the pest or weed control at 250 g/ha (in assay [2]; in the assay on Avena fatua (AVEFA) [3]) were 100% and 10%, respectively.

In the case of `CCc1cc(-c2ccc(F)c(F)c2)ccc1C1=C(O)C(C)(C)SC(C)(C)C1=O` [Compound B-5], the pest or weed control at 250 g/ha with Lolium perenne (LOLPE) [4] was 30%; in [5], 50%; in assay [6], 0%; in the assay on Avena fatua (AVEFA) [7], 20%; in the assay on Lolium perenne (LOLPE) [8] it was 60%; in assay [1] it was 70%. Moreover, the pest or weed control at 250 g/ha in assay [2] turned out to be 60%; in the assay with Avena fatua (AVEFA) [3], 70%.

In the case of `CCc1cc(-c2ccc(F)c(F)c2F)ccc1C1=C(O)C(C)(CC)OC(C)(C)C1=O` (stereo not drawn) [Compound A-123], the pest or weed control at 250 g/ha with Lolium perenne (LOLPE) [4] turned out to be 0%; in assay [5], 0%; in [6], 0%; with Avena fatua (AVEFA) [7], 0%; in the assay on Lolium perenne (LOLPE) [8] it was 80%; in assay [1] it was 80%. The pest or weed control at 250 g/ha came out at 90% in assay [2] and 80% with Avena fatua (AVEFA) [3].

Regarding `CCc1cc(-c2ccc(F)c(OC)c2)ccc1C1=C(O)C(C)(CC)OC(C)(C)C1=O` (stereo not drawn) [Compound A-118], the pest or weed control at 250 g/ha turned out to be 90% in the assay with Lolium perenne (LOLPE) [4]; 20% in assay [5]; 40% in assay [6]; 0% in the assay on Avena fatua (AVEFA) [7]; 80% in the assay with Lolium perenne (LOLPE) [8]; 60% in assay [1]. For the same compound, the pest or weed control at 250 g/ha in assay [2] is 90%; in the assay on Avena fatua (AVEFA) [3], 80%.

Turning to `CCc1cc(-c2ccc(F)cc2)ccc1C1=C(O)C2(CCCC2)OC(C)(C)C1=O` [Compound A-103], the pest or weed control at 250 g/ha in the assay on Lolium perenne (LOLPE) [4] was determined as 20%; in assay [5], 20%; in assay [6] it was 20%; in the assay with Avena fatua (AVEFA) [7] it was 0%; in the assay with Lolium perenne (LOLPE) [8] it was 60%; in assay [1], 60%. For the same compound, the values for the pest or weed control at 250 g/ha (in assay [2]; in the assay with Avena fatua (AVEFA) [3]) were 90% and 10%, respectively.

In the case of `CCc1cc(-c2ccc(Cl)c(C)c2)ccc1C1=C(O)C(C)(C)OC(C)(C)C1=O` [Compound A-52], the pest or weed control at 250 g/ha with Lolium perenne (LOLPE) [4] came out at 0%; in [5], 0%; in assay [6], 20%; in the assay on Avena fatua (AVEFA) [7], 0%; in the assay with Lolium perenne (LOLPE) [8], 40%; in assay [1], 40%. Further, the pest or weed control at 250 g/ha was 70% in assay [2] and 20% in the assay on Avena fatua (AVEFA) [3].

Turning to `CCc1cc(-c2cc(F)cc(Cl)c2)ccc1C1=C(O)C(C)(C)OC(C)(C)C1=O` [Compound A-60], the pest or weed control at 250 g/ha in the assay with Lolium perenne (LOLPE) [4] came out at 0%; in assay [5], 0%; in [6], 0%; with Avena fatua (AVEFA) [7], 0%; with Lolium perenne (LOLPE) [8], 70%; in assay [1] it was 60%. Besides, the pest or weed control at 250 g/ha stood at 90% in assay [2] and 70% in the assay with Avena fatua (AVEFA) [3].

`CCc1cc(-c2cc(Cl)cc(Cl)c2)ccc1C1=C(O)C(C)(C)OC(C)(C)C1=O` [Compound A-99]: the pest or weed control at 250 g/ha worked out at 60% in the assay on Lolium perenne (LOLPE) [4]; 10% in [5]; 30% in assay [6]; 0% in the assay with Avena fatua (AVEFA) [7]; 90% with Lolium perenne (LOLPE) [8]; 90% in assay [1]. Also, the pest or weed control at 250 g/ha was determined as 100% in [2] and 90% with Avena fatua (AVEFA) [3].

As for `CCc1cc(-c2ccc(C)c(F)c2)ccc1C1=C(O)C(C)(C)OC(C)(C)C1=O` [Compound A-72], the pest or weed control at 250 g/ha was 0% with Lolium perenne (LOLPE) [4]; 0% in assay [5]; 0% in assay [6]; 0% with Avena fatua (AVEFA) [7]; 70% in the assay on Lolium perenne (LOLPE) [8]; 0% in [1]. Also, the pest or weed control at 250 g/ha came out at 80% in assay [2] and 0% in the assay on Avena fatua (AVEFA) [3].

Take `CCc1cc(-c2cc(Cl)ccc2OC)ccc1C1=C(O)C(C)(C)C(=O)C(C)(C)C1=O` [Compound C-6]: the pest or weed control at 250 g/ha is 70% with Lolium perenne (LOLPE) [4]; 40% in [5]; 0% in assay [6]; 10% in the assay with Avena fatua (AVEFA) [7]; 20% with Lolium perenne (LOLPE) [8]; 20% in [1]. The pest or weed control at 250 g/ha in [2] was found to be 50%; in the assay with Avena fatua (AVEFA) [3], 10%.

As to `CCc1cc(-c2cc(F)c(F)cc2F)ccc1C1=C(O)C(C)(CC)OC(C)(C)C1=O` (stereo not drawn) [Compound A-122], the pest or weed control at 250 g/ha with Lolium perenne (LOLPE) [4] was 0%; in [5] it was 20%; in assay [6], 10%; in the assay on Avena fatua (AVEFA) [7] it was 0%; in the assay on Lolium perenne (LOLPE) [8] it was 70%; in assay [1], 90%. Also, the pest or weed control at 250 g/ha was determined as 70% in assay [2] and 30% in the assay on Avena fatua (AVEFA) [3].

Turning to `CC1(C)OC(C)(C)C(O)=C(c2ccc(-c3ccc(F)cc3)cc2Cl)C1=O` [Compound A-134], the pest or weed control at 250 g/ha is 30% in the assay on Lolium perenne (LOLPE) [4]; 40% in [5]; 80% in assay [6]; 0% with Avena fatua (AVEFA) [7]; 50% with Lolium perenne (LOLPE) [8]; 70% in assay [1]. Also, the pest or weed control at 250 g/ha turned out to be 100% in [2] and 20% with Avena fatua (AVEFA) [3].
